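Cells were grown in 96-well plates and exposed to each compound for 48 hours at five concentrations; endpoints were interpolated linearly between bracketing concentrations, or set to the highest concentration if not reached. TGI: total growth inhibition.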
Experiments:
Assay in all cases: growth of human tumour cells (NCI), 48 h
MALME-3M melanoma = tested on: MALME-3M melanoma
U251 CNS = tested on: U251 CNS
MDA-MB-231 breast = tested on: MDA-MB-231 breast
MDA-MB-435 = tested on: MDA-MB-435
COLO 205 colon = tested on: COLO 205 colon
SK-MEL-5 melanoma = tested on: SK-MEL-5 melanoma
NCI-H23 lung = tested on: NCI-H23 lung
UACC-62 melanoma = tested on: UACC-62 melanoma
RPMI-8226 leukemia = tested on: RPMI-8226 leukemia
NCI-H226 lung = tested on: NCI-H226 lung
HS 578T breast = tested on: HS 578T breast
SW-620 colon = tested on: SW-620 colon
A549 NSCLC = tested on: A549 NSCLC
A498 renal = tested on: A498 renal
SF-295 CNS = tested on: SF-295 CNS
SF-268 CNS = tested on: SF-268 CNS
DU-145 prostate = tested on: DU-145 prostate
ACHN renal = tested on: ACHN renal
HT29 colon = tested on: HT29 colon

Compound	TGI (MALME-3M melanoma) [µM]	TGI (U251 CNS) [µM]	TGI (MDA-MB-231 breast) [µM]	TGI (MDA-MB-435) [µM]	TGI (COLO 205 colon) [µM]	TGI (SK-MEL-5 melanoma) [µM]	TGI (NCI-H23 lung) [µM]	TGI (UACC-62 melanoma) [µM]	TGI (RPMI-8226 leukemia) [µM]	TGI (NCI-H226 lung) [µM]	TGI (HS 578T breast) [µM]	TGI (SW-620 colon) [µM]	TGI (A549 NSCLC) [µM]	TGI (A498 renal) [µM]	TGI (SF-295 CNS) [µM]	TGI (SF-268 CNS) [µM]	TGI (DU-145 prostate) [µM]	TGI (ACHN renal) [µM]	TGI (HT29 colon) [µM]
COc1cc2c(cc1OC)C(=O)N(c1ccc(O)cc1)C2	> 100	> 100	> 100	> 100	> 100	> 100	> 100	> 100	> 100	> 100	> 100	> 100	> 100	> 100	> 100	> 100	> 100	> 100	> 100
C[N+]1(C)CC=C(N2CCOCC2)CC1	> 10	> 10	> 10	> 10	> 10	> 10	> 10	> 10	> 10	> 10	> 10	> 10	> 10	> 10	> 10	> 10	> 10	> 10	> 10
COc1ccc2nc3ccc(OC)cc3c(S(=O)Cc3ccc([N+](=O)[O-])cc3)c2c1 (stereo not given)	5.18	> 55.2	29.9	26	15.9	31.8	25.1	29.5	7.7	45.6	25.9	–	> 58	36.3	41.8	47.5	6.59	11.2	6.33
CCC1(O)C=CC(=O)C=C1	28.2	34.9	36.6	> 100	> 100	> 100	69.3	43.6	> 100	75.3	> 100	> 100	> 100	67.9	> 100	52	> 64.4	49	> 100
COc1ccc(CN2C(=O)CCC/C=C\[C@H]2CI)cc1	24.4	26.5	23	25.2	26.9	25.1	28.7	22.6	31.2	25.5	33.2	23.8	21.5	25	26.3	27.2	26	27.3	21.5
O=C(CCSC(CC(=O)c1ccc(Cl)cc1)c1ccc(Cl)cc1)Nc1ccc(Cl)cc1 (stereo not given)	30.6	21.1	33.4	25.6	35.2	29.4	30.4	21.9	5.57	41.5	64.1	10.5	40	25.1	25.8	29	27	27.5	24.6
O=C1CC(NC(=O)C(F)(F)F)c2c(Br)sc(N3CCC(c4ccccc4)CC3)c21 (stereo not given)	> 100	25.5	39.8	> 100	> 100	68.4	> 100	> 100	–	91.5	79.6	> 100	> 100	> 100	28.7	> 100	> 100	> 100	> 100
O=C(C=P(c1ccccc1)(c1ccccc1)c1ccccc1)C12CC3CC(CC(C3)C1)C2	38	34	32.9	26.6	28.7	28.8	33.2	29.1	20.6	–	37.6	34.9	36	39.9	–	41.6	39.3	29.7	23.2
CCOC(=O)NNC(=O)NCCNC(=O)NNC(=O)OCC	> 100	> 100	> 100	> 100	> 100	> 100	> 100	> 100	> 100	> 100	> 100	> 100	> 100	> 100	–	> 100	> 100	–	> 100
CSc1n[nH]c(N)c1C(=O)Nc1ccc(Cl)cc1	> 100	> 100	> 100	> 100	> 100	> 100	> 100	> 100	> 100	76.5	> 100	> 100	> 100	> 100	–	> 100	> 100	–	> 100
CCOC(=O)c1cc2cc(Cc3ccc4[nH]c(C(=O)OCC)cc4c3)ccc2[nH]1	> 100	29.9	37.9	> 100	> 100	–	37.9	36.3	> 100	62.4	72.8	> 100	–	36.4	55.5	38.5	> 100	44	> 100
CCOC(=O)CC(C)C(C#N)(OP1(=O)OC(c2ccccc2)C(C)N1C)c1ccccc1 (stereo not given)	> 100	> 100	> 100	> 100	36.6	> 100	> 100	> 100	> 100	–	> 100	> 100	> 100	> 100	> 100	> 100	> 100	> 100	> 100
COc1c2nc(CCl)n(C)c(=O)c2c(OC)c2c(=O)n(C)c(CCl)nc12	3.44	3.29	2.88	7.65	2.71	4.96	3.4	–	1.64	13.7	95	2.6	13.3	5.94	5.16	4.52	14	2.43	2.87

Source: PubChem BioAssay (NCI)
